From US20250009889A1, “CYCLIC PEROXIDES AS PRODRUGS FOR SELECTIVE DELIVERY OF AGENTS” (The Regents of the University of California, priority 2021, published 2025)
pIC50: −log10 of the molar value. Entries after “also recorded” stand apart in the source; their conditions may differ.

Legend:
[1] = Fe(II)-fragmentation assay followed by UPLC/MS; assay type: physicochemical; conditions: ferrous-ammonium sulfate with pH 7.4 Tris buffer; for fragmentation of the trioxolane / conversion to the common cyclohexanone intermediate A on exposure to Fe^2+: UPLC/MS
Method: Fe(II)-Fragmentation Assay To 1 mL of trioxolane analog in DMSO (1 mM) at 37° C. was added 1 mL of Tris containing 50 mM ferrous ammonium sulfate. At various time points, 40 μL aliquots of the resulting mixture were removed and spun down in a mini centrifuge for 20 seconds, 20 μL of the supernatant was removed and 5 μL was injected into the UPLC. The concentration of the fragments was determined by UV from UPLC (290 nm). The resulting UV curves were plotted using GraphPad Prism software.

[2] = tested on: P. falciparum parasites (W2 strain); assay: Growth inhibition of cultured P. falciparum parasites (antiplasmodial activity); assay type: cell-based; conditions: Plasmodium falciparum, Erythrocyte, in human red blood cells, 48 h incubation, flow cytometry, read-out: IC50 against cultured P. falciparum parasites
Method: Plasmodium falciparum EC50 Determinations
The growth inhibition assay for P. falciparum was conducted as described previously with minor modifications. Briefly, P. falciparum strain W2 synchronized ring-stage parasites were cultured in human red blood cells in 96-well flat-bottom culture plates at 37° C., adjusted to 1% parasitemia and 2% hematocrit under an atmosphere of 3% O2, 5% CO2, and […] in a final volume of 0.1 mL per well in RPMI-1640 media supplemented with 0.5% Albumax, 2 mM L-glutamine, and […] in the presence of various concentrations of inhibitors. […] Following 48 h of incubation, the cells were fixed by adding 0.1 mL of 2% formaldehyde in phosphate buffered saline, pH=7.4 (PBS). Parasite growth was evaluated by flow cytometry on a FACsort (Becton Dickinson) equipped with AMS-1 loader (Cytek Development) after staining with 1 nM of the DNA dye YOYO-1 (Molecular Probes) in 100 mM NH4Cl, 0.1% Triton x-100 in 0.8% NaCl. Parasitemias were determined from dot plots (forward scatter vs fluorescence) using CELLQUEST software (Becton Dickinson). EC50 values for growth inhibition were determined from plots of percentage control parasitemia over inhibitor concentration using GraphPad Prism software.

| SMILES | fragmentation of the trioxolane / conversion to the common cyclohexanone intermediate A on exposure to Fe^2+ ([1]; 37° C.) | pIC50 [2] | alternate bicyclo[2.2.1]heptan-2-one product detected (regioselectivity of peroxide scission) [1] | rate of conversion to intermediate A relative to comparator 6a [1] | time point by which the conjugate is fully consumed ([1]; 37° C.) [min] |
| --- | --- | --- | --- | --- | --- |
| O=C(O[C@@H]1CCC[C@]2(C1)OOC1(O2)C2CC3CC(C2)CC1C3)N1CCCCC1C(O)c1cc(C(F)(F)F)nc2c(C(F)(F)F)cccc12 (stereo partly drawn) [6a, reference compound] | rapid; also recorded: within minutes to clean conversion | 7.77 | – | – | – |
| O=C(O[C@@H]1CCC[C@]2(C1)OOC1(CC3CCC1C3)O2)N1CCCCC1C(O)c1cc(C(F)(F)F)nc2c(C(F)(F)F)cccc12 (stereo partly drawn) [6f] | rapid; also recorded: within minutes to clean conversion | 7.13 | No detectable quantity | moderately faster | ≤ 11 |
| O=C(O[C@@H]1CCC[C@]2(C1)OOC1(CC3CCC1CC3)O2)N1CCCCC1C(O)c1cc(C(F)(F)F)nc2c(C(F)(F)F)cccc12 (stereo partly drawn) [6g] | – | 7.62 | – | – | – |
| O=C(O[C@@H]1CCC[C@]2(C1)OOC1(O2)C2CCCC1CCC2)N1CCCCC1C(O)c1cc(C(F)(F)F)nc2c(C(F)(F)F)cccc12 (stereo partly drawn) [6h] | – | 7.62 | – | – | – |
